These results are taken from US20140100216A1, “STIMULATORS OF INCRETIN HORMONES SECRETION, METHOD FOR PREPARATION AND USE THEREOF” (priority 2011, published 2014).

One may read the EC50 as the concentration that produces a half-maximal response.

SMILES strings stand for the structures.

Assay [1] deals with T1, human TGR5 (hTGR5) receptors (Homo sapiens, UniProt Q8TDU6).
T1 construct: expressed in transfected cells; host or cells: HEK-293
T1 sequence (Q8TDU6 1-330): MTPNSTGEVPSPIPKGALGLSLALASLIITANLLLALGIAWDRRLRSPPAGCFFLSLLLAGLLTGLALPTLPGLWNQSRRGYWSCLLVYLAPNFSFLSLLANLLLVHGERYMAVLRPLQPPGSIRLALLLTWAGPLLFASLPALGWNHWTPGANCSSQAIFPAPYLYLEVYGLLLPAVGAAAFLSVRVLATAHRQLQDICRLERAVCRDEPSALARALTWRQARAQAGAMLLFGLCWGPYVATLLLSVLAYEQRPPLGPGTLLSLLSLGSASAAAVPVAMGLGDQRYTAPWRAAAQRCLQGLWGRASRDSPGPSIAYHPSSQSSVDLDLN
Briefly: Agonistic activity towards TGR5 receptors, increase of intracellular cAMP in HEK-293 cells. As to conditions: HEK-293 cells expressing hTGR5, read-out: Activity (agonistic activity, EC50 class). Format: cell-based. As to the method:
Screening of compounds of the general formula 1 was carried out in experiments on cells of HEK-293 line, in which human TGR5 (hTGR5) receptors were expressed. Agonistic activity of compounds was estimated by increasing of intracellular cAMP concentration.

Assay [2] concerns diabesity mice of db/db line. The experiment in a line: Influence of rectal BA administration on weight change at diabesity. The settings on record: GDC 5 and 50 mmol gel rectally + Sitagliptin 30 mg/kg peroral, weighed 2 days after administration. Format: in vivo. As to the method:
Influence of rectal administration of glycodeoxycholic acid (GDC) on weight change of mice of db/db line at diabesity was investigated. […] The gel was prepared on the base of methyl cellulose water solution (1%) and Tween-80 (2%). The animals were weighted 2 days before the experiment, at the moment of administration and 2 days after administration of compositions.

The test system of assay [3] is diabesity mice of db/db line. Briefly: Influence of rectal administration of bile acid GDC on blood glucose level. The settings on record: male db/db mice. Type of assay: in vivo. As to the method: The influence of rectal administration of glycodeoxycholic acid (GDC) on glucose level in blood was studied at diabesity mice of db/db line. Glucose level at male db/db mice (39.5 g) was measured 24 hs before and at the moment of rectal administration, and then in 1, 2, 3, 4, 5, 6, and 24 hs afterwards. […] The gel was prepared on the base of methyl cellulose water solution (1%) and Tween-80 (2%). GDC BA administration in both doses effectively and statistically valid reduced glucose concentration in plasma of diabesity mice of db/db line (on 24%—at 50 mmol and on 20% at 5 mmol).

Take `O=C(NC1CCCC1)C1c2cc(C(F)(F)F)ccc2OCCN1Cc1cccc(-c2ccccc2)c1` (stereo not drawn) [Compound 14, 4-(3-pheylbenzyl)-7-trifluoromethyl-2,3,4,5-tetrahydrobenzo[f][1,4]oxazepine-5-carboxylic acid cyclopentylamide]: in assay [1], the EC50 is greater than 10 µM.

For `O=C(NC1CCCCC1)C1c2cc(C(F)(F)F)ccc2OCCN1Cc1cccc(-c2ccccc2)c1` (stereo not drawn) [Compound 15, 4-(3-phenylbenzyl)-7-trifluoromethyl-2,3,4,5-tetrahydrobenzo[f][1,4]oxazepine-5-carboxylic acid cyclohexylamide], the EC50 in assay [1] is less than 1 µM.

On to `CC(C)(C)NC(=O)C1c2cc(F)ccc2OCCN1Cc1ccccc1-c1ccncc1` (stereo not drawn) [Compound 18, 4-[2-(pyridin-4-yl)benzyl]-7-fluoro-2,3,4,5-tetrahydrobenzo[f][1,4]oxazepine-5-carboxylic acid tert-butylamide], for which the EC50 in assay [1] fell in the range of 1 to 10 µM.

Turning to `CC(C)(C)NC(=O)C1c2cc(F)ccc2OCCN1Cc1ccccc1-c1ccc(F)cc1` (stereo not drawn) [Compound 50, 4-[2-(4-fluorophenyl)benzyl]-7-fluoro-2,3,4,5-tetrahydrobenzo[f][1,4]oxazepine-5-carboxylic acid tert-butylamide], the half-maximal effective concentration (EC50) in assay [1] was less than 1 µM.

In the case of `O=C(NC1CCCC1)C1c2cc(C(F)(F)F)ccc2OCC(=O)N1Cc1cccc(-c2ccccc2)c1` (stereo not drawn) [Compound 81, 4-(3-phenylbenzyl)-3-oxo-7-trifluoromethyl-2,3,4,5-tetrahydrobenzo[f][1,4]oxazepine-5-carboxylic acid cyclopentylamide], in assay [1], the EC50 is greater than 10 µM.

In the case of `CC(C)(C)NC(=O)C1c2ccccc2OCC(=O)N1Cc1ccccc1-c1ccncc1` (stereo not drawn) [Compound 90, 4-[2-(pyridin-4-yl)benzyl]-3-oxo-2,3,4,5-tetrahydrobenzo[f][1,4]oxazepine-5-carboxylic acid tert-butylamide], the half-maximal effective concentration (EC50) in assay [1] was greater than 10 µM.

Consider `Cc1ccc(-c2ccccc2CN2C(=O)COc3ccccc3C2C(=O)NC(C)(C)C)cc1` (stereo not drawn) [Compound 96, 4-[2-(4-methylphenyl)benzyl]-3-oxo-2,3,4,5-tetrahydrobenzo[f][1,4]oxazepine-5-carboxylic acid tert-butylamide], for which, in assay [1], the EC50 was in the range of 1 to 10 µM.

`Cc1cccc(-c2ccccc2CN2C(=O)COc3ccccc3C2C(=O)NC(C)(C)C)c1` (stereo not drawn) [Compound 97, 4-[2-(3-methylphenyl)benzyl]-3-oxo-2,3,4,5-tetrahydrobenzo[f][1,4]oxazepine-5-carboxylic acid tert-butylamide]: the EC50 in assay [1] was greater than 10 µM.

Take `CC(CCC(=O)NCC(=O)O)C1CCC2C3CCC4CC(O)CCC4(C)C3CC(O)C12C` (stereo not drawn) [GDC, glycodeoxycholic acid]: the “weight change of animals” value in assay [2] is “effectively and statistically-valid reduced weights of experimental animals”. Further, the “reduction of glucose concentration in plasma” value in assay [3] (GDC 5 mmol gel rectally + Sitagliptin 30 mg/kg perorally 15 min before) is 20%; in assay [3] (GDC 50 mmol gel rectally + Sitagliptin 30 mg/kg perorally 15 min before), 24%.

For the molecule `N[C@@H](CC(=O)N1CCn2c(nnc2C(F)(F)F)C1)Cc1cc(F)c(F)cc1F` [Sitagliptin, reference compound], in assay [3] (Sitagliptin alone (vehicle gel + Sitagliptin 30 mg/kg)), the “lowering of glucose level in blood plasma” value was 5-10%.
